# Patent publication US20250145665A1, “MACROCYCLIC PEPTIDES USEFUL AS MODULATORS OF TNF ALPHA” (Bristol-Myers Squibb Company, priority 2023, published 2025)
# Starred links: 1 amine or outer side, 2 acyl side, 3 side chain; linkers in the order of their positions; H or OH if unused. Positions of bridges follow the written chain, without caps; N, C: chain ends. Non-standard residues stand in square brackets, D forms with d. Residues, ends and D or L forms follow the SMILES beside them. *: point of attachment. X46 = O=C(Cc1cccc(C(=O)O)c1)Nc1ccc(-c2ccc(C[C@H](N[*:1])C(=O)[*:2])cc2)cc1; X73 = O=C(O)CCCC(=O)Nc1ccc(-c2ccc(C[C@H](N[*:1])C(=O)[*:2])cc2)cc1; Bip(4'-NH) = O=C([C@H](Cc1ccc(-c2ccc(N[*:3])cc2)cc1)N[*:1])[*:2]; Bip(4'-CONHMe) = CNC(=O)c1ccc(-c2ccc(C[C@H](N)C(=O)O)cc2)cc1; Bip(4'-COOH) = N[C@@H](Cc1ccc(-c2ccc(C(=O)O)cc2)cc1)C(=O)O; X49 = O=C([C@H](Cc1ccc(-c2cccc(N[*:3])c2)cc1)N[*:1])[*:2]; Ala(morpholin-4-yl) = N[C@@H](CN1CCOCC1)C(=O)O; Bip = N[C@@H](Cc1ccc(-c2ccccc2)cc1)C(=O)O; X24 = O=C(O)COc1cc(-c2ccccc2)ccc1C(=O)*; X31 = Cn1c(C(=O)*)cc2cccc(Cl)c21; X32 = O=C(c1sc2cccc(Cl)c2c1Cl)*; Cha = N[C@@H](CC1CCCCC1)C(=O)O; X50 = O=C(O)COc1ccccc1C(=O)*; Sar = CNCC(=O)O
# Biological target: TNFα (Homo sapiens, UniProt P01375)
# Sequence (P01375 77-233 limits assumed): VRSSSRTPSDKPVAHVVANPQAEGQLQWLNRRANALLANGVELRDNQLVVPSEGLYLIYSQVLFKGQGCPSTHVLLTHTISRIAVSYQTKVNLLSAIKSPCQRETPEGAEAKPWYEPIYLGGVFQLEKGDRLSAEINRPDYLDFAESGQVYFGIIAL
# Assay: TNF-Induced HEK-Blue Assay
# Assay type: cell-based
# Settings: HEK-Blue-CD40L cells, NF-kB-driven secreted alkaline phosphatase reporter; TNFα 0.5 ng/ml; 18 h; read-out: TNF induced HEK-Blue assay IC50 value
row,SMILES,IC50
1,CC[C@H](C)[C@@H]1NC(=O)[C@@H](CCCNC(=N)N)NC(=O)[C@H](CC(=O)O)NC(=O)[C@H](Cc2cnc[nH]2)NC(=O)CN(C)C(=O)[C@H](Cc2ccc(-c3ccc(NC(=O)CCCC(=O)O)cc3)cc2)NC(=O)[C@H](Cc2ccc(-c3ccccc3)cc2)NC(=O)[C@H](CC2CCCCC2)NC(=O)CSC[C@@H](C(=O)NCC(N)=O)NC(=O)[C@H](CC(C)C)NC(=O)[C@H](Cc2cnc[nH]2)NC(=O)[C@H](C(C)C)NC(=O)[C@@H]2CCCN2C1=O [Example 324] ({CH2CO}-[Cha][Bip][X73][Sar]HD[dR]IPVHLCG-NH2; thioether N-13),50 to 200 nM
2,CC[C@H](C)[C@@H]1NC(=O)[C@@H](CCCNC(=N)N)NC(=O)[C@H](CC(=O)O)NC(=O)[C@H](Cc2cnc[nH]2)NC(=O)CN(C)C(=O)[C@H](Cc2ccc(-c3ccc(NC(=O)c4cc5cccc(Cl)c5n4C)cc3)cc2)NC(=O)[C@H](Cc2ccc(-c3ccccc3)cc2)NC(=O)[C@H](CC2CCCCC2)NC(=O)CSC[C@@H](C(=O)NCC(N)=O)NC(=O)[C@H](CC(C)C)NC(=O)[C@H](Cc2cnc[nH]2)NC(=O)[C@H](C(C)C)NC(=O)[C@@H]2CCCN2C1=O [Example 326] ({CH2CO}-[Cha][Bip][Bip(4'-NH)](X31)[Sar]HD[dR]IPVHLCG-NH2; thioether N-13),50 to 200 nM
3,CC[C@H](C)[C@@H]1NC(=O)[C@@H](CCCNC(=N)N)NC(=O)[C@H](CC(=O)O)NC(=O)[C@H](Cc2cnc[nH]2)NC(=O)CN(C)C(=O)[C@H](Cc2ccc(-c3ccc(NC(=O)Cc4cccc(C(=O)O)c4)cc3)cc2)NC(=O)[C@H](Cc2ccc(-c3ccccc3)cc2)NC(=O)[C@H](CC2CCCCC2)NC(=O)CSC[C@@H](C(=O)NCC(N)=O)NC(=O)[C@H](CC(C)C)NC(=O)[C@H](Cc2cnc[nH]2)NC(=O)[C@H](C(C)C)NC(=O)[C@@H]2CCCN2C1=O [Example 328] ({CH2CO}-[Cha][Bip][X46][Sar]HD[dR]IPVHLCG-NH2; thioether N-13),50 to 200 nM
4,CC[C@H](C)[C@@H]1NC(=O)[C@@H](CCCNC(=N)N)NC(=O)[C@H](CC(=O)O)NC(=O)[C@H](Cc2cnc[nH]2)NC(=O)CN(C)C(=O)[C@H](Cc2ccc(-c3ccc(NC(=O)c4ccccc4OCC(=O)O)cc3)cc2)NC(=O)[C@H](Cc2ccc(-c3ccccc3)cc2)NC(=O)[C@H](CC2CCCCC2)NC(=O)CSC[C@@H](C(=O)NCC(N)=O)NC(=O)[C@H](CC(C)C)NC(=O)[C@H](Cc2cnc[nH]2)NC(=O)[C@H](C(C)C)NC(=O)[C@@H]2CCCN2C1=O [Example 329] ({CH2CO}-[Cha][Bip][Bip(4'-NH)](X50)[Sar]HD[dR]IPVHLCG-NH2; thioether N-13),< 50 nM
5,CC[C@H](C)[C@@H]1NC(=O)[C@@H](CCCNC(=N)N)NC(=O)[C@H](CC(=O)O)NC(=O)[C@H](Cc2cnc[nH]2)NC(=O)CN(C)C(=O)[C@H](Cc2ccc(-c3ccc(C(=O)NC)cc3)cc2)NC(=O)[C@H](Cc2ccc(-c3ccc(C(=O)O)cc3)cc2)NC(=O)[C@H](CC2CCCCC2)NC(=O)CSC[C@@H](C(=O)NCC(N)=O)NC(=O)[C@H](CC(C)C)NC(=O)[C@H](Cc2cnc[nH]2)NC(=O)[C@H](C(C)C)NC(=O)[C@@H]2CCCN2C1=O [Example 331] ({CH2CO}-[Cha][Bip(4'-COOH)][Bip(4'-CONHMe)][Sar]HD[dR]IPVHLCG-NH2; thioether N-13),< 50 nM

# Second part, the molecule after the results:
row,IC50,SMILES
1,200 to 2000 nM,CC[C@H](C)[C@@H]1NC(=O)[C@@H](CCCNC(=N)N)NC(=O)[C@H](CC(=O)O)NC(=O)[C@H](Cc2cnc[nH]2)NC(=O)CN(C)C(=O)[C@H](Cc2ccc(-c3ccc(NC(=O)c4sc5cccc(Cl)c5c4Cl)cc3)cc2)NC(=O)[C@H](Cc2ccc(-c3ccccc3)cc2)NC(=O)[C@H](CC2CCCCC2)NC(=O)CSC[C@@H](C(=O)NCC(N)=O)NC(=O)[C@H](CC(C)C)NC(=O)[C@H](Cc2cnc[nH]2)NC(=O)[C@H](C(C)C)NC(=O)[C@@H]2CCCN2C1=O [Example 325] ({CH2CO}-[Cha][Bip][Bip(4'-NH)](X32)[Sar]HD[dR]IPVHLCG-NH2; thioether N-13)
2,50 to 200 nM,CC(C)C[C@@H]1NC(=O)[C@H](CCCNC(=N)N)NC(=O)[C@H](C(C)C)NC(=O)[C@@H]2CCCN2C(=O)[C@H](C(C)C)NC(=O)[C@@H](CCCNC(=N)N)NC(=O)[C@H](CC(=O)O)NC(=O)[C@@H]2CCCN2C(=O)CN(C)C(=O)[C@H](Cc2ccc(-c3cccc(NC(=O)c4ccccc4OCC(=O)O)c3)cc2)NC(=O)[C@H](Cc2ccc(-c3ccccc3)cc2)NC(=O)[C@H](CN2CCOCC2)NC(=O)CSC[C@@H](C(=O)NCC(N)=O)NC1=O [Example 327] ({CH2CO}-[Ala(morpholin-4-yl)][Bip][X49](X50)[Sar]PD[dR]VPVRLCG-NH2; thioether N-13)
3,50 to 200 nM,CC[C@H](C)[C@@H]1NC(=O)[C@@H](CCCNC(=N)N)NC(=O)[C@H](CC(=O)O)NC(=O)[C@H](Cc2cnc[nH]2)NC(=O)CN(C)C(=O)[C@H](Cc2ccc(-c3ccc(NC(=O)c4ccc(-c5ccccc5)cc4OCC(=O)O)cc3)cc2)NC(=O)[C@H](Cc2ccc(-c3ccccc3)cc2)NC(=O)[C@H](CC2CCCCC2)NC(=O)CSC[C@@H](C(=O)NCC(N)=O)NC(=O)[C@H](CC(C)C)NC(=O)[C@H](Cc2cnc[nH]2)NC(=O)[C@H](C(C)C)NC(=O)[C@@H]2CCCN2C1=O [Example 330] ({CH2CO}-[Cha][Bip][Bip(4'-NH)](X24)[Sar]HD[dR]IPVHLCG-NH2; thioether N-13)
